Consider four molecules from patent US20210169837A1, “COMPOSITION FOR REDUCING NEW-ONSET DIABETES” (MOCHIDA PHARMACEUTICAL CO., LTD., priority 2012, published 2021).

Each structure is given as a SMILES string.

The subject of data set [1] is Human fetal rhabdomyosarcoma cell line (RD cell, ATCC). Put plainly: 2-3H-deoxyglucose uptake by differentiated skeletal muscle cells. Conditions: for Uptake of radioactivity (2-3H-deoxyglucose) per 1 μg of protein: statin = 30 μM simvastatin, EPA = 50 μM sodium eicosapentate. The data set is classed as cell-based. How it is done: (1) Human fetal rhabdomyosarcoma cell line (RD cell, ATCC) was inoculated in 24 well plate and cultured in a growth medium (10% fetal bovine serum (FCS), Dulbecco's modified Eagle medium (DMEM), low glucose, 1% nonessential amino acid) to confluency. (2) The cells were then cultivated in differentiation medium (2% horse serum (HS), Dulbecco's modified Eagle medium (DMEM), low glucose, 1% nonessential amino acid) for 3 to 5 days for differentiation into muscle cell.
(3) After the incubation, the medium was removed by aspiration, and the cells were incubated in an uptake buffer (140 mM NaCl, 5 mM KCl, 2.5 mM MgSO4, 20 mM HEPES, 1 mM CaCl2, pH=7.4) supplemented with 10 μM of 2-3H-deoxyglucose at 37° C. for 12 minutes. (4) After the incubation, the cells were washed 4 times with cold stop solution (PBS(−)supplemented with 10 mM glucose).
The PBS(−) contained 0.2 g of NaH2PO4.2H2O, 3.225 g of Na2HPO4.12H2O, and 8 g of NaCl in 1 L, and the pH was at 7.2 to 7.4.
(5) After the washing, 500 μL/well of aqueous solution of 0.4N sodium hydroxide was added, and the cells were lyzed by heating to 56° for 20 minutes. (6) 300 μL of the well content (cell lysate) was mixed with 4 mL of Atomlight (manufactured by PerkinElmer), and ^3H count was measured with a liquid scintillation counter. The well content (cell lysate) was also measured for its protein concentration to calculate the ^3H count per 1 μg of the protein.
FIG. 1 is the graph showing the uptake of radioactivity (y axis) in relation to the incubation time (x axis) for each group.

The subject of data set [2] is aged people of at least 66 years old administered with statin. The settings on record: compared to the case of pravastatin; cited from earlier work.

`CCC(C)(C)C(=O)O[C@H]1C[C@@H](C)C=C2C=C[C@H](C)[C@H](CC[C@@H]3C[C@@H](O)CC(=O)O3)[C@H]21` [Statin, simvastatin]: the “rate of decrease of radioactivity uptake” value in data set [1] (48 hr of incubation, vs control group, 30 μM simvastatin (with or without 50 μM EPA)) is on record as “about 73%”. Further, the “Uptake of radioactivity (2-3H-deoxyglucose) per 1 μg of protein” value in data set [1] (incubation time 1 hr) came out at 563 dpm/μg protein; in data set [1] (incubation time 6 hr), 489 dpm/μg protein; in data set [1] (incubation time 24 hr), 343 dpm/μg protein; in data set [1] (incubation time 48 hr), 170 dpm/μg protein.
As for `CC(C)c1c(C(=O)Nc2ccccc2)c(-c2ccccc2)c(-c2ccc(F)cc2)n1CC[C@@H](O)C[C@@H](O)CC(=O)O` [atorvastatin], the “risk of the incidence of the diabetes compared to pravastatin” value (“risk … compared to pravastatin” below) in data set [2] is given as “significantly increased”.
With `CC[C@H](C)C(=O)O[C@H]1C[C@@H](C)C=C2C=C[C@H](C)[C@H](CC[C@@H]3C[C@@H](O)CC(=O)O3)[C@H]21` [lovastatin], the “risk … compared to pravastatin” value in data set [2] is reported as “no significant difference”.
Turning to `CC(C)c1nc(N(C)S(C)(=O)=O)nc(-c2ccc(F)cc2)c1/C=C/[C@@H](O)C[C@@H](O)CC(=O)O` [rosuvastatin], the “risk … compared to pravastatin” value in data set [2] is “significantly increased”.
